Experimental data: ChEMBL document CHEMBL3864152, “Discovery of ursolic acid prodrug (NX-201): Pharmacokinetics and in vivo antitumor effects in PANC-1 pancreatic cancer” (Bioorg Med Chem Lett, 2016)
One block for each molecule: values may come before it. Active and inactive are the calls of the source. No cut-off for these calls is given here.

What was measured:
PANC-1 [1] = assay: Antitumor activity against human PANC1 cells xenografted in non-obese diabetic […] SCID mouse assessed as tumor growth inhibition at 40 mg/kg, iv administered 2 times per week for 4 weeks; assay type: functional, organism-based
Mus musculus [2] = assay: Toxicity in non-obese diabetic […] SCID mouse xenografted with human PANC1 cells assessed as change in body weight at 40 mg/kg, iv administered 2 times per week for 4 weeks; assay type: organism-based, PANC-1; settings: in vivo, 672 h
[3] = Oral bioavailability in Sprague-Dawley rat at 25 mg/kg; assay type: ADME, organism-based; settings: in vivo
[4] = Oral bioavailability in rat at 25 mg/kg; assay type: ADME, organism-based; settings: in vivo
[5] = Half life in rat at 25 mg/kg, po; assay type: ADME, organism-based; settings: in vivo
[6] = Tmax in rat at 25 mg/kg, po; assay type: ADME, organism-based; settings: in vivo
[7] = Tmax in rat at 0.5 mg/kg, iv; assay type: ADME, organism-based; settings: in vivo
[8] = AUC in rat at 25 mg/kg, po; assay type: ADME, organism-based; settings: in vivo
[9] = Half life in rat at 0.5 mg/kg, iv; assay type: ADME, organism-based; settings: in vivo
in vivo = settings: rat, iv, 0.5 mg/kg
Description: Cmax in rat at 0.5 mg/kg, iv

Mus musculus [10] = assay: Toxicity in non-obese diabetic […] SCID mouse xenografted with human PANC1 cells assessed as change in body weight at 50 mg/kg, po administered daily for 4 weeks; assay type: organism-based, PANC-1; settings: in vivo, 672 h
[11] = Cmax in rat at 25 mg/kg, po; assay type: ADME, organism-based; set-up: dose 25 mg/kg, route oral; settings: in vivo
[12] = AUC in rat at 0.5 mg/kg, iv; assay type: ADME, organism-based; settings: in vivo
[13] = Dissociation constant, pKa of the compound; assay type: physicochemical
PANC-1 [14] = assay: Antitumor activity against human PANC1 cells xenografted in po dosed non-obese diabetic […] SCID mouse assessed as tumor growth inhibition administered daily for 4 weeks; assay type: functional, organism-based
Mus musculus [15] = assay: Toxicity in non-obese diabetic […] SCID mouse xenografted with human PANC1 cells assessed as change in body weight at 50 mg/kg, po administered daily for 4 weeks in presence of gemcitabine; assay type: organism-based, PANC-1; settings: in vivo, 672 h
Mus musculus [16] = assay: Toxicity in non-obese diabetic […] SCID mouse xenografted with human PANC1 cells assessed as change in body weight at 25 to 100 mg/kg, po administered daily for 4 weeks; assay type: organism-based, PANC-1; settings: in vivo, 672 h
PANC-1 [17] = assay: Antitumor activity against human PANC1 cells xenografted in non-obese diabetic […] SCID mouse assessed as tumor growth inhibition at 50 mg/kg, po administered daily measured after 3 weeks in presence of gemcitabine; assay type: functional, organism-based

Compound: Nc1ccn([C@@H]2O[C@H](CO)[C@@H](O)C2(F)F)c(=O)n1 [GEMCITABINE]
- TGI (PANC-1 [1]): Active
- Activity (Mus musculus [2]): Non-Toxic

- bioavailability [3]: 0.7%
Compound: CC1(C)CC[C@]2(C(=O)O)CC[C@]3(C)C(=CC[C@@H]4[C@@]5(C)CC[C@H](O)C(C)(C)[C@@H]5CC[C@]43C)[C@@H]2C1 [OLEANOLIC_ACID]

- bioavailability [4]: < 0.01%
- half-life [5]: 18 min
- Tmax [6]: 15 min
- Tmax [7]: 4.8 min
- AUC [8]: 0.6 ng·h/mL
- half-life [9]: 93 min
- Cmax (in vivo): 378 ng/mL
- Cmax [11]: 1.9 ng/mL
- AUC [12]: 114 ng·h/mL
- pKa [13]: 5.29
Compound: C[C@H]1[C@H](C)CC[C@]2(C(=O)O)CC[C@]3(C)C(=CC[C@@H]4[C@@]5(C)CC[C@H](O)C(C)(C)[C@@H]5CC[C@]43C)[C@H]12 [URSOLIC ACID]
- Activity (Mus musculus [10]): Non-Toxic

- bioavailability [4]: 2.3%
- half-life [5]: 283 min
- Tmax [6]: 87.6 min
- AUC [8]: 132 ng·h/mL
- Cmax [11]: 30.3 ng/mL
Compound: Cc1oc(=O)oc1COC(=O)[C@]12CC[C@@H](C)[C@H](C)[C@H]1C1=CC[C@@H]3[C@@]4(C)CC[C@H](O)C(C)(C)[C@@H]4CC[C@@]3(C)[C@]1(C)CC2
- TGI (PANC-1 [14]): Dose-dependent effect
- Activity (Mus musculus [15]): Non-Toxic
- Activity (Mus musculus [16]): Non-Toxic
- TGI (PANC-1 [17]): Active
